System: 92.1 cells
Test: Cell cycle distribution by flow cytometry (PI), 92.1 cells
Assay type: cell-based, human
Conditions: 10 µM compound, 48 h
Protocol: We then investigated whether this anti-proliferative effect was due to the blockade in the G0/G1 phase of the cell cycle, as expected for SAHA[31].
Figure 8. Influence of the different compounds and DMSO solvent control on cell cycle distribution in UM 92.1 and Mel270 cells. The cells were treated with 10 µM compound for 48 h and cell cycle distribution was analysed by flow cytometry after fixation and staining with PI. The percentage of cells in each category is indicated. One representative experiment is shown.
Treatments with the compounds were performed with slight differences, according to the final use of the samples. For the cell viability assay with MTT, cells were seeded in 96-well flat-bottom plates in culture medium at 5 × 10^3 cells/well, whereas for cell cycle analysis and QRT-PCR cells were seeded in 24-well plates at 5 × 10^4 cells/well. The day after, a culture medium containing the appropriate amount of compounds or their solvent control DMSO was added, and treatments were carried out for the indicated time.
To assess the cell cycle status of treated samples, after 48 h of incubation the cells were harvested, washed twice with cold PBS, and fixed in 70% ethyl alcohol at −20 °C overnight. The day after, the samples were washed with cold PBS and incubated for 20 min with propidium iodide (PI) staining solution (50 μg/ml PI, 0.05% Triton X-100, 0.2 mg/ml RNase A in PBS) at room temperature. Flow cytometric analysis of DNA content was performed using a FACScan flow cytometer with the CellQuest software (BD Biosciences). Gating on viable cells was performed using physical parameters and 10^4 gated events were acquired. Cell cycle analysis on the gated PI distribution was performed using Modfit software.

## O=C(CCCCO/N=C/c1cnc2ccccc2c1)NO [Compound 2f, (E)-N-hydroxy-5-(((quinolin-3-ylmethylene)amino)oxy)pentanamide]
  effect on cell cycle distribution: efficiently block the cell cycle at the G0/G1 phase

— PMC7594840, “Identification of histone deacetylase inhibitors with (arylidene)aminoxy scaffold active in uveal melanoma cell lines” (Journal of Enzyme Inhibition and Medicinal Chemistry, 2020)
